Experimental data reported in patent US4617994A, “Determining residual oil saturation by injecting CO2 and base generating reactant” (priority 1985, dated 1986).
Read-outs that look alike come from different tables or passages of the source. Values belong to the compound of their own block, whether it stands above or below them.

Format: physicochemical
[1] = 206 °F, pH 6.0, 50 psig, 0.5 M/L NaCl, 0.05 mol/liter base generator
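Also: hydrolysis of the base generator in aqueous solution, t1/2 given in hours as the time until half of it has reacted, with pH held steady during the run.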

Source text: In each case, the solution was maintained at a pressure of 50 psig during the test. The pH of the solution was maintained substantially constant by adding portions at 0.1 mol/liter sodium bicarbonate solution to the system while the hydrolysis was proceeding. Each base generator solution consisted of water containing 0.5 mol/liter sodium chloride and 0.05 mols/liter of the base generator.
*^1 This is the time, in hours, required for the base generator to be
This is a convenient way to measure the speed of a reaction.

Structure (SMILES): CC1CO1 (stereo not shown) [Propylene oxide, Propylene Oxide]
- Half Life, t1/2 (76 °F, pH 7.0, 50 psig, 0.5 M/L NaCl, 0.05 mol/liter base generator): 86.1 h
- Half Life, t1/2 (106 °F, pH 6.0, 50 psig, 0.5 M/L NaCl, 0.05 mol/liter base generator): 26.5 h
- Half Life, t1/2 (122 °F, pH 6.0, 50 psig, 0.5 M/L NaCl, 0.05 mol/liter base generator): 26.0 h
- Half Life, t1/2 (122 °F, pH 7.0, 50 psig, 0.5 M/L NaCl, 0.05 mol/liter base generator): 35.6 h

Structure (SMILES): O=N[O-].[Na+] [NaNO2, Sodium Nitrite]
- Half Life, t1/2 (212 °F, pH 6.0, 50 psig, 0.5 M/L NaCl, 0.05 mol/liter base generator): 80.0 h
- Half Life, t1/2 (279 °F, pH 5.5, 50 psig, 0.5 M/L NaCl, 0.05 mol/liter base generator): 17.5 h
- Half Life, t1/2 (279 °F, pH 6.0, 50 psig, 0.5 M/L NaCl, 0.05 mol/liter base generator): 49.2 h
- Half Life, t1/2 (279 °F, pH 7.0, 50 psig, 0.5 M/L NaCl, 0.05 mol/liter base generator): 141.4 h
- Half Life, t1/2 (280 °F, pH 6.5, 50 psig, 0.5 M/L NaCl, 0.05 mol/liter base generator): 84.9 h
- Half Life, t1/2 (296 °F, pH 6.5, 50 psig, 0.5 M/L NaCl, 0.05 mol/liter base generator): 73.2 h

Structure (SMILES): N#CO [KOCN, Potassium Cyanate]
- Half Life, t1/2 (78 °F, pH 6.0, 50 psig, 0.5 M/L NaCl, 0.05 mol/liter base generator): 19.6 h
- Half Life, t1/2 (78 °F, pH 6.5, 50 psig, 0.5 M/L NaCl, 0.05 mol/liter base generator): 68.6 h
- Half Life, t1/2 (78 °F, pH 7.0, 50 psig, 0.5 M/L NaCl, 0.05 mol/liter base generator): 206.4 h
- Half Life, t1/2 (99 °F, pH 7.0, 50 psig, 0.5 M/L NaCl, 0.05 mol/liter base generator): ~ 94.0 hours
- Half Life, t1/2 (99 °F, pH 7.5, 50 psig, 0.5 M/L NaCl, 0.05 mol/liter base generator): ~ 223.0 hours
- Half Life, t1/2 (116 °F, pH 8.0, 50 psig, 0.5 M/L NaCl, 0.05 mol/liter base generator): ~ 223.0 hours

Next, values leading:

- Half Life, t1/2 (177 °F, pH 6.0, 50 psig, 0.5 M/L NaCl, 0.05 mol/liter base generator): 184.1 h
- Half Life, t1/2 (177 °F, pH 7.0, 50 psig, 0.5 M/L NaCl, 0.05 mol/liter base generator): 28.4 h
- Half Life, t1/2 [1]: 31.3 h
Structure (SMILES): O=C1CCC(=O)N1 [Succinimide]

- Half Life, t1/2 (0.5 m nacl water, pH 5.5): 8.4 h
- Half Life, t1/2 (0.5 m nacl water, pH 6.2): 12.3 h
- Half Life, t1/2 (0.5 m nacl water, pH 7): 45.2 h
- Half Life, t1/2 (0.5 m nacl water, pH 8): 15.9 h
Structure (SMILES): NC(N)=O [Urea]

- Half Life, t1/2 (76 °F, pH 6.0, 50 psig, 0.5 M/L NaCl, 0.05 mol/liter base generator): 450.1 h
- Half Life, t1/2 (96 °F, pH 6.0, 50 psig, 0.5 M/L NaCl, 0.05 mol/liter base generator): 53.6 h
- Half Life, t1/2 (109 °F, pH 6.0, 50 psig, 0.5 M/L NaCl, 0.05 mol/liter base generator): 92.0 h
- Half Life, t1/2 (109 °F, pH 7.0, 50 psig, 0.5 M/L NaCl, 0.05 mol/liter base generator): 35.0 h
- Half Life, t1/2 (110 °F, pH 5.5, 50 psig, 0.5 M/L NaCl, 0.05 mol/liter base generator): 439.0 h
- Half Life, t1/2 (110 °F, pH 6.5, 50 psig, 0.5 M/L NaCl, 0.05 mol/liter base generator): 43.8 h
- Half Life, t1/2 (140 °F, pH 6.0, 50 psig, 0.5 M/L NaCl, 0.05 mol/liter base generator): 18.4 h
- Half Life, t1/2 [1]: too fast
Structure (SMILES): O=C1C=CC(=O)N1 [Maleimide]
